Laboratory results taken from article PMC8170132, “Kinetics of Abacavir-Induced Remodelling of the Major Histocompatibility Complex Class I Peptide Repertoire” (Frontiers in Immunology, 2021).

Biological target: T1, HLA-B*57:01 (Homo sapiens, UniProt P01889, D201E/D98Y/E176V/E187L/E204Q/E69M/E70A/G107R/I90N/K202T/L105A/L119I/N104I/N87E/Q89R/Q94S/R106L/R155S/R180L/R86G/S101N/S121V/S35A/S48A/T118I/V36M/Y140S/Y91M)
Assay: LC-MRM-MS quantitation of HLA ligands and co-purified abacavir from abacavir treated C1R.B*57:01 cells
Type: cell-based
Conditions: C1R.B*57:01, 35 µM abacavir 0-16 h or constant; linear regression of normalised abundance, three replicates

Sequence | Category of abacavir impact on peptide abundance in the immunopeptidome
RVDPAKGLFYF [non-labelled HLA-B*57:01 ligand] | Inhibited
LSKPNPPSL [HLA-B*57:01 ligand] | Minimal
KTFKDVGNLL [non-labelled HLA-B*57:01 ligand] | Facilitated
HTIQIRQDW [HLA-B*57:01 ligand] | Facilitated
TSLKSRVTI [non-labelled HLA-B*57:01 ligand] | Facilitated
KVFKLQTSL [non-labelled HLA-B*57:01 ligand] | Dependent
LTSELITHI [HLA-B*57:01 ligand derived from MX1] | abacavir dependent (abacavir dependent (slope > 0.02, abundance = 0 at t = 0 in at least two of three replicates))
KTIETSPSL [HLA-B*57:01 ligand] | abacavir facilitated (abacavir facilitated (slope > 0.02, abundance > 0 at t = 0 in at least two of three replicates))
KTFTTQETI [HLA-B*57:01 ligand] | abacavir facilitated (abacavir facilitated (slope > 0.02, abundance > 0 at t = 0 in at least two of three replicates))
YTDNLVRVW [HLA-B*57:01 ligand derived from RACK1] | minimally impacted by abacavir

Same assay, conditions: LC-MRM-MS detection; classification of the peptide based on abacavir dependency

Sequence | Abacavir dependence
ASAIIIQRW | Minimal
STIRLLTSL | Facilitated
RVDPAKGLFYF [non-labelled HLA-B*57:01 ligand] | Inhibited
LSKPNPPSL [HLA-B*57:01 ligand] | Minimal
RTLLEDGTFKV | Dependent
LSQEQLRQW | Minimal
ISIHVGQAGVQI | Dependent
RVDPDVAQHW | Minimal
KTFKDVGNLL [non-labelled HLA-B*57:01 ligand] | Facilitated
HTIQIRQDW [HLA-B*57:01 ligand] | Facilitated
TALPLLKQF | Inhibited
TSLKSRVTI [non-labelled HLA-B*57:01 ligand] | Facilitated
KVFKLQTSL [non-labelled HLA-B*57:01 ligand] | Dependent
IVFPGSTGHI | Dependent
ITAGAHRLW | Minimal
LSSDINVRSW | Minimal
SSAEVKVTI | Dependent
STLHLVLRL | Dependent
ASAGNLKPVW | Minimal
LTSELITHI [HLA-B*57:01 ligand derived from MX1] | Dependent
KTFIGTVRV | Dependent
SAAYLPRMW | Minimal
FVKKLEHSW | Minimal
GSFGKVFLV | Dependent
HSMSDPGVSY | Minimal
KTLEGEFSV | Dependent
KAIDYIRFL | Inhibited
YTDNLVRVW [HLA-B*57:01 ligand derived from RACK1] | Minimal

Same assay, conditions: linear regression of LC-MRM-MS peptide abundance over abacavir treatment time

Sequence | Linear regression slope
ASAIIIQRW | 0.0134
STIRLLTSL | 0.0278
IFDSKVTEI | -0.0096
RVDPAKGLFYF [non-labelled HLA-B*57:01 ligand] | -0.0245
LSKPNPPSL [HLA-B*57:01 ligand] | -0.0172
RTLLEDGTFKV | 0.0443
LSQEQLRQW | 0.0083
ISIHVGQAGVQI | 0.0259
RVDPDVAQHW | 0.0110
KTFKDVGNLL [non-labelled HLA-B*57:01 ligand] | 0.0314
ILDPHVVLL | 0.0062
HTIQIRQDW [HLA-B*57:01 ligand] | 0.0256
TALPLLKQF | -0.0283
TSLKSRVTI [non-labelled HLA-B*57:01 ligand] | 0.0267
KVFKLQTSL [non-labelled HLA-B*57:01 ligand] | 0.0380
IVFPGSTGHI | 0.0377

Sequence | Linear regression slope
ITAGAHRLW | 0.0136
LSSDINVRSW | -0.0197
YFDPANGKF | 0.0159
SSAEVKVTI | 0.0466
STLHLVLRL | 0.0280
ASAGNLKPVW | 0.0136
IYDKFIAQL | -0.0106
LTSELITHI [HLA-B*57:01 ligand derived from MX1] | 0.0325
KTFIGTVRV | 0.0503
SAAYLPRMW | -0.0194
FVKKLEHSW | 0.0023
GSFGKVFLV | 0.0515
HSMSDPGVSY | 0.0044
KTLEGEFSV | 0.0463
KAIDYIRFL | -0.0293
YTDNLVRVW [HLA-B*57:01 ligand derived from RACK1] | -0.0088

Biological target: T1, HLA-B*57:01
Assay: not given
Design: method as in Illing et al., Nature 2012
Conditions: abacavir treated cells; ref Illing et al., Nature 2012; cited from earlier work

Sequence | HLA-B*57:01 previous observation by LC-MS/MS, Abacavir treated
ASAIIIQRW | + (+ (< 5% FDR))
STIRLLTSL | + (+ (< 5% FDR))
IFDSKVTEI | + (+ (< 5% FDR))
RVDPAKGLFYF [non-labelled HLA-B*57:01 ligand] | + (+ (< 5% FDR))
LSKPNPPSL [HLA-B*57:01 ligand] | + (+ (< 5% FDR))
RTLLEDGTFKV | + (+ (< 5% FDR))
LSQEQLRQW | + (+ (< 5% FDR))
ISIHVGQAGVQI | + (+ (< 5% FDR))
RVDPDVAQHW | + (+ (< 5% FDR))
KTFKDVGNLL [non-labelled HLA-B*57:01 ligand] | + (+ (< 5% FDR))
ILDPHVVLL | + (+ (< 5% FDR))
HTIQIRQDW [HLA-B*57:01 ligand] | + (+ (< 5% FDR))
TALPLLKQF | + (+ (< 5% FDR))
TSLKSRVTI [non-labelled HLA-B*57:01 ligand] | # (# (> 5% FDR))
KVFKLQTSL [non-labelled HLA-B*57:01 ligand] | # (# (> 5% FDR))
IVFPGSTGHI | + (+ (< 5% FDR))
ITAGAHRLW | + (+ (< 5% FDR))

Sequence | HLA-B*57:01 previous observation by LC-MS/MS, Abacavir treated
LSSDINVRSW | + (+ (< 5% FDR))
YFDPANGKF | + (+ (< 5% FDR))
SSAEVKVTI | + (+ (< 5% FDR))
STLHLVLRL | + (+ (< 5% FDR))
ASAGNLKPVW | + (+ (< 5% FDR))
IYDKFIAQL | + (+ (< 5% FDR))
LTSELITHI [HLA-B*57:01 ligand derived from MX1] | + (+ (< 5% FDR))
KTFIGTVRV | + (+ (< 5% FDR))
SAAYLPRMW | + (+ (< 5% FDR))
FVKKLEHSW | + (+ (< 5% FDR))
GSFGKVFLV | + (+ (< 5% FDR))
KTIETSPSL [HLA-B*57:01 ligand] | # (# (> 5% FDR))
HSMSDPGVSY | + (+ (< 5% FDR))
KTFTTQETI [HLA-B*57:01 ligand] | + (+ (< 5% FDR))
KTLEGEFSV | + (+ (< 5% FDR))
KAIDYIRFL | + (+ (< 5% FDR))
YTDNLVRVW [HLA-B*57:01 ligand derived from RACK1] | + (+ (< 5% FDR))

Same assay, conditions: untreated cells; ref Illing et al., Nature 2012; cited from earlier work

Sequence | HLA-B*57:01 previous observation by LC-MS/MS, Untreated
ASAIIIQRW | + (+ (< 5% FDR))
STIRLLTSL | + (+ (< 5% FDR))
IFDSKVTEI | + (+ (< 5% FDR))
RVDPAKGLFYF [non-labelled HLA-B*57:01 ligand] | + (+ (< 5% FDR))
LSKPNPPSL [HLA-B*57:01 ligand] | + (+ (< 5% FDR))
LSQEQLRQW | + (+ (< 5% FDR))
RVDPDVAQHW | + (+ (< 5% FDR))
KTFKDVGNLL [non-labelled HLA-B*57:01 ligand] | + (+ (< 5% FDR))
ILDPHVVLL | + (+ (< 5% FDR))
HTIQIRQDW [HLA-B*57:01 ligand] | + (+ (< 5% FDR))
TALPLLKQF | + (+ (< 5% FDR))
TSLKSRVTI [non-labelled HLA-B*57:01 ligand] | + (+ (< 5% FDR))
ITAGAHRLW | + (+ (< 5% FDR))
LSSDINVRSW | + (+ (< 5% FDR))
YFDPANGKF | + (+ (< 5% FDR))
STLHLVLRL | + (+ (< 5% FDR))
ASAGNLKPVW | + (+ (< 5% FDR))
IYDKFIAQL | + (+ (< 5% FDR))
SAAYLPRMW | + (+ (< 5% FDR))
FVKKLEHSW | + (+ (< 5% FDR))
HSMSDPGVSY | + (+ (< 5% FDR))
KTFTTQETI [HLA-B*57:01 ligand] | + (+ (< 5% FDR))
KAIDYIRFL | # (# (> 5% FDR))
YTDNLVRVW [HLA-B*57:01 ligand derived from RACK1] | + (+ (< 5% FDR))
